Experimental data reported in publication PMC4832243, “Discovery of Potent VEGFR-2 Inhibitors based on Furopyrimidine and Thienopyrimidne Scaffolds as Cancer Targeting Agents” (Scientific Reports, 2016).

Experiments:
Type in all cases: cell-based
[1] = test system: NCI-H522; assay: NCI 60 cell line panel (SRB), NCI-H522; details: Homo sapiens; NCI-H522, Non-Small Cell Lung Cancer; single dose of 10 μM; read-out: Cell Growth Percent
[2] = test system: RPMI-8226; assay: NCI 60 cell line panel (SRB), RPMI-8226; details: Homo sapiens; RPMI-8226, Leukemia; single dose of 10 μM; read-out: Cell Growth Percent
[3] = test system: KM12; assay: NCI 60 cell line panel (SRB), KM12; details: Homo sapiens; KM12, Colon Cancer; single dose of 10 μM; read-out: Cell Growth Percent
[4] = test system: SK-MEL-2; assay: NCI 60 cell line panel (SRB), SK-MEL-2; details: Homo sapiens; SK-MEL-2, Melanoma; single dose of 10 μM; read-out: Cell Growth Percent
[5] = test system: A549/ATCC; assay: NCI 60 cell line panel (SRB), A549/ATCC; details: Homo sapiens, Non-Small Cell Lung Cancer, single dose of 10 μM, read-out: Cell Growth Percent
[6] = test system: K-562; assay: NCI 60 cell line panel (SRB), K-562; details: Homo sapiens, K562; K-562, Leukemia; single dose of 10 μM; read-out: Cell Growth Percent
[7] = test system: DU-145; assay: NCI 60 cell line panel (SRB), DU-145; details: Homo sapiens; DU-145, Prostate Cancer; single dose of 10 μM; read-out: Cell Growth Percent
[8] = test system: HCT-15; assay: NCI 60 cell line panel (SRB), HCT-15; details: Homo sapiens; HCT-15, Colon Cancer; single dose of 10 μM; read-out: Cell Growth Percent
[9] = test system: PC-3; assay: NCI 60 cell line panel (SRB), PC-3; details: Homo sapiens; PC-3, Prostate Cancer; single dose of 10 μM; read-out: Cell Growth Percent
[10] = test system: UO-31; assay: NCI 60 cell line panel (SRB), UO-31; details: Homo sapiens; UO-31, Renal Cancer; single dose of 10 μM; read-out: Cell Growth Percent
[11] = test system: MALME-3M; assay: NCI 60 cell line panel (SRB), MALME-3M; details: Homo sapiens, Melanoma, single dose of 10 μM, read-out: Cell Growth Percent
[12] = test system: SR; assay: NCI 60 cell line panel (SRB), SR; details: Homo sapiens, Leukemia, single dose of 10 μM, read-out: Cell Growth Percent
[13] = test system: OVCAR-8; assay: NCI 60 cell line panel (SRB), OVCAR-8; details: Homo sapiens; OVCAR-8, Ovarian Cancer; single dose of 10 μM; read-out: Cell Growth Percent
[14] = test system: M14; assay: NCI 60 cell line panel (SRB), M14; details: Homo sapiens; M14, Melanoma; single dose of 10 μM; read-out: Cell Growth Percent
[15] = test system: MOLT-4; assay: NCI 60 cell line panel (SRB), MOLT-4; details: Homo sapiens; MOLT-4, Leukemia; single dose of 10 μM; read-out: Cell Growth Percent
[16] = test system: NCI-H322M; assay: NCI 60 cell line panel (SRB), NCI-H322M; details: Homo sapiens, Non-Small Cell Lung Cancer, single dose of 10 μM, read-out: Cell Growth Percent
[17] = test system: SF-539; assay: NCI 60 cell line panel (SRB), SF-539; details: Homo sapiens; SF-539, CNS Cancer; single dose of 10 μM; read-out: Cell Growth Percent
[18] = test system: UACC-62; assay: NCI 60 cell line panel (SRB), UACC-62; details: Homo sapiens; UACC-62, Melanoma; single dose of 10 μM; read-out: Cell Growth Percent
[19] = test system: A498; assay: NCI 60 cell line panel (SRB), A498; details: Homo sapiens; A498, Renal Cancer; single dose of 10 μM; read-out: Cell Growth Percent
[20] = test system: NCI-H460; assay: NCI 60 cell line panel (SRB), NCI-H460; details: Homo sapiens; NCI-H460, Non-Small Cell Lung Cancer; single dose of 10 μM; read-out: Cell Growth Percent
[21] = test system: HT29; assay: NCI 60 cell line panel (SRB), HT29; details: Homo sapiens, HT-29; HT29, Colon Cancer; single dose of 10 μM; read-out: Cell Growth Percent
[22] = test system: CAKI-1; assay: NCI 60 cell line panel (SRB), CAKI-1; details: Homo sapiens; CAKI-1, Renal Cancer; single dose of 10 μM; read-out: Cell Growth Percent
[23] = test system: SK-OV-3; assay: NCI 60 cell line panel (SRB), SK-OV-3; details: Homo sapiens; SK-OV-3, Ovarian Cancer; single dose of 10 μM; read-out: Cell Growth Percent
[24] = test system: ACHN; assay: NCI 60 cell line panel (SRB), ACHN; details: Homo sapiens, Renal Cancer, single dose of 10 μM, read-out: Cell Growth Percent
[25] = test system: SW-620; assay: NCI 60 cell line panel (SRB), SW-620; details: Homo sapiens; SW-620, Colon Cancer; single dose of 10 μM; read-out: Cell Growth Percent
[26] = test system: EKVX; assay: NCI 60 cell line panel (SRB), EKVX; details: Homo sapiens, Non-Small Cell Lung Cancer, single dose of 10 μM, read-out: Cell Growth Percent
[27] = test system: OVCAR-3; assay: NCI 60 cell line panel (SRB), OVCAR-3; details: Homo sapiens; OVCAR-3, Ovarian Cancer; single dose of 10 μM; read-out: Cell Growth Percent
[28] = test system: RXF 393; assay: NCI 60 cell line panel (SRB), RXF 393; details: Homo sapiens; RXF 393, Renal Cancer; single dose of 10 μM; read-out: Cell Growth Percent
[29] = test system: SNB-19; assay: NCI 60 cell line panel (SRB), SNB-19; details: Homo sapiens; SNB-19, CNS Cancer; single dose of 10 μM; read-out: Cell Growth Percent
[30] = test system: NCI-H226; assay: NCI 60 cell line panel (SRB), NCI-H226; details: Homo sapiens; NCI-H226, Non-Small Cell Lung Cancer; single dose of 10 μM; read-out: Cell Growth Percent
[31] = test system: SF-268; assay: NCI 60 cell line panel (SRB), SF-268; details: Homo sapiens; SF-268, CNS Cancer; single dose of 10 μM; read-out: Cell Growth Percent
[32] = test system: MDA-MB-231/ATCC; assay: NCI 60 cell line panel (SRB), MDA-MB-231/ATCC; details: Homo sapiens, Breast Cancer, single dose of 10 μM, read-out: Cell Growth Percent
[33] = test system: SK-MEL-28; assay: NCI 60 cell line panel (SRB), SK-MEL-28; details: Homo sapiens; SK-MEL-28, Melanoma; single dose of 10 μM; read-out: Cell Growth Percent
[34] = test system: MCF7; assay: NCI 60 cell line panel (SRB), MCF7; details: Homo sapiens; MCF7, Breast Cancer; single dose of 10 μM; read-out: Cell Growth Percent

| SMILES | activity at 10 µM [1] | activity at 10 µM [2] | activity at 10 µM [3] | activity at 10 µM [4] | activity at 10 µM [5] | activity at 10 µM [6] | activity at 10 µM [7] | activity at 10 µM [8] | activity at 10 µM [9] | activity at 10 µM [10] | activity at 10 µM [11] | activity at 10 µM [12] | activity at 10 µM [13] | activity at 10 µM [14] | activity at 10 µM [15] | activity at 10 µM [16] | activity at 10 µM [17] | activity at 10 µM [18] | activity at 10 µM [19] | activity at 10 µM [20] | further results |
| --- | --- | --- | --- | --- | --- | --- | --- | --- | --- | --- | --- | --- | --- | --- | --- | --- | --- | --- | --- | --- | --- |
| CCOC(=O)c1c(C)oc2ncnc(Nc3ccc(NC(=O)Nc4cccc(Cl)c4)cc3)c12 [Compound 15d] | 57.1% | 46.1% | 61% | 72.7% | 32.3% | 67.7% | 70.8% | 58.9% | 41.2% | 50.3% | 81.4% | 53.6% | 50.2% | 48.6% | 49.2% | 83.5% | 16.6% | 69.1% | 63% | 67.1% | activity at 10 µM [21]: 37.1%; activity at 10 µM [22]: 90.8%; activity at 10 µM [23]: 93.2%; activity at 10 µM [24]: 57.4%; activity at 10 µM [25]: 88.6%; activity at 10 µM [26]: 72.3%; activity at 10 µM [27]: 80.8%; activity at 10 µM [28]: 63.6%; activity at 10 µM [29]: 84.6%; activity at 10 µM [30]: 54.8%; activity at 10 µM [31]: 86.4%; activity at 10 µM [32]: 18.6%; activity at 10 µM [33]: 61.8%; activity at 10 µM [34]: 43.3% |
| CCOC(=O)c1c(C)oc2ncnc(Nc3ccc(C(=O)Nc4cccc(Cl)c4)cc3)c12 [Compound 14a] | 78% | 94.6% | 93.8% | 99.8% | 95.3% | 87% | 75.9% | 108% | 78.3% | 89.5% | 122% | 74.8% | 103% | 95.2% | 94% | 99.7% | 107% | 67.6% | 92.4% | 100% | activity at 10 µM [21]: 83.6%; activity at 10 µM [22]: 99.2%; activity at 10 µM [23]: 112%; activity at 10 µM [24]: 114%; activity at 10 µM [25]: 106%; activity at 10 µM [26]: 102%; activity at 10 µM [27]: 110%; activity at 10 µM [28]: 76.8%; activity at 10 µM [29]: 102%; activity at 10 µM [30]: 97%; activity at 10 µM [31]: 103%; activity at 10 µM [32]: 95.8%; activity at 10 µM [33]: 105%; activity at 10 µM [34]: 90.6% |
| COc1cccc(NC(=O)Nc2ccc(Oc3ncnc4sc5c(c34)CCCC5)cc2)c1 [Compound 21c] | 21% | 46.7% | 27.5% | 97.3% | 61.2% | 64.6% | 82.4% | 67.1% | 45% | 52.5% | 88.5% | 50.9% | 89.9% | 67.3% | 46.9% | 95.8% | 53% | 70.9% | 67.8% | 65.7% | activity at 10 µM [21]: 54.8%; activity at 10 µM [22]: 80.8%; activity at 10 µM [23]: 78.2%; activity at 10 µM [24]: 75%; activity at 10 µM [25]: 96.3%; activity at 10 µM [26]: 66.2%; activity at 10 µM [27]: 68.3%; activity at 10 µM [28]: 74%; activity at 10 µM [29]: 70.2%; activity at 10 µM [30]: 65.1%; activity at 10 µM [31]: 72%; activity at 10 µM [32]: 69.6%; activity at 10 µM [33]: 83.7%; activity at 10 µM [34]: 54.4% |
| CCOC(=O)c1c(C)oc2ncnc(Nc3ccc(NC(=O)Nc4ccc(CC)cc4)cc3)c12 [Compound 15i] | 83.7% | 95% | 103% | 120% | 89.2% | 98% | 103% | 105% | 90.7% | 94.7% | 101% | 81.6% | 112% | 99.9% | 98.6% | 102% | 89% | 108% | 109% | 106% | activity at 10 µM [21]: 103%; activity at 10 µM [22]: 98.3%; activity at 10 µM [23]: 88.2%; activity at 10 µM [24]: 98.8%; activity at 10 µM [25]: 113%; activity at 10 µM [26]: 102%; activity at 10 µM [27]: 118%; activity at 10 µM [28]: 98.2%; activity at 10 µM [29]: 97.9%; activity at 10 µM [30]: 104%; activity at 10 µM [31]: 103%; activity at 10 µM [32]: 94.6%; activity at 10 µM [33]: 105%; activity at 10 µM [34]: 94.9% |
